Results as given in article PMC11876601 (Molecular Systems Biology, 2025).
Like-named read-outs stand apart in the source and are kept apart here.

Test system: AsPC-1 cells
Assay: Cell proliferation assay, chemodrug + ATR inhibitor (Incucyte confluence, 72 h);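 also: underlying read-out for every value is AsPC-1 confluence after 72 h incubation at 37 °C and 5% CO2, divided by that well's starting confluence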
Details: for EC50: Homo sapiens
Description: Cells were seeded at 5000 cells/well into 96-well flat bottom plates (Eppendorf) and allowed to attach overnight. […] Cells were incubated for 72 h at 37 °C and 5% CO2. Cell confluence readouts at 72 h were either normalized to their initial confluence using the Incucyte software (AsPC-1) or used without prior normalization (all others). […] Each experiment was performed in triplicates, the data was plotted as mean ± standard deviation (s.d.).

Structure (SMILES): Nc1ccn([C@@H]2O[C@H](CO)[C@@H](O)C2(F)F)c(=O)n1 [GEM, Gemcitabine]
- Raw data (confluence at 72 h/confluence at 0 h) (Experiment (ATRi) Elimusertib, replicate R2, drug dose (titrated) 30 nM): 3.07
- Raw data (confluence at 72 h/confluence at 0 h) (Experiment (ATRi) Elimusertib, replicate R2, drug dose (titrated) 100 nM): 2.33
- Raw data (confluence at 72 h/confluence at 0 h) (Experiment (ATRi) Elimusertib, replicate R3, drug dose (titrated) 1 nM): 3.76
- Raw data (confluence at 72 h/confluence at 0 h) (Experiment (ATRi) Elimusertib, replicate R3, drug dose (titrated) 3 nM): 3.85
- Raw data (confluence at 72 h/confluence at 0 h) (Experiment (ATRi) Elimusertib, replicate R3, drug dose (titrated) 10 nM): 3.75
- Raw data (confluence at 72 h/confluence at 0 h) (Experiment (ATRi) Elimusertib, replicate R3, drug dose (titrated) 30 nM): 3.15
- Raw data (confluence at 72 h/confluence at 0 h) (Experiment (ATRi) Elimusertib, replicate R3, drug dose (titrated) 100 nM): 2.28
- Raw data (confluence at 72 h/confluence at 0 h) (Experiment (ATRi) Gartisertib, replicate R1, drug dose (titrated) 1 nM): 3.28
- Raw data (confluence at 72 h/confluence at 0 h) (Experiment (ATRi) Gartisertib, replicate R1, drug dose (titrated) 3 nM): 3.04
- Raw data (confluence at 72 h/confluence at 0 h) (Experiment (ATRi) Gartisertib, replicate R1, drug dose (titrated) 10 nM): 2.71
- Raw data (confluence at 72 h/confluence at 0 h) (Experiment (ATRi) Gartisertib, replicate R1, drug dose (titrated) 30 nM): 2.57
- Raw data (confluence at 72 h/confluence at 0 h) (Experiment (ATRi) Gartisertib, replicate R1, drug dose (titrated) 100 nM): 2.04
- Raw data (confluence at 72 h/confluence at 0 h) (Experiment (ATRi) Gartisertib, replicate R1, drug dose (titrated) 300 nM): 1.92
- Raw data (confluence at 72 h/confluence at 0 h) (Gartisertib experiment, replicate R2, titrated drug dose 1 nM): 4.01
- Raw data (confluence at 72 h/confluence at 0 h) (Gartisertib experiment, replicate R2, titrated drug dose 3 nM): 4.05
- Raw data (confluence at 72 h/confluence at 0 h) (Gartisertib experiment, replicate R2, titrated drug dose 10 nM): 3.93
- Raw data (confluence at 72 h/confluence at 0 h) (Gartisertib experiment, replicate R2, titrated drug dose 30 nM): 3.32
- Raw data (confluence at 72 h/confluence at 0 h) (Gartisertib experiment, replicate R2, titrated drug dose 100 nM): 2.49
- Raw data (confluence at 72 h/confluence at 0 h) (Gartisertib experiment, replicate R2, titrated drug dose 300 nM): 2.07
- Raw data (confluence at 72 h/confluence at 0 h) (Gartisertib experiment, replicate R2, titrated drug dose 1000 nM): 1.91
- Raw data (confluence at 72 h/confluence at 0 h) (Gartisertib experiment, replicate R2, titrated drug dose 3000 nM): 1.89
- Raw data (confluence at 72 h/confluence at 0 h) (Gartisertib experiment, replicate R3, titrated drug dose 1 nM): 4.16
- Raw data (confluence at 72 h/confluence at 0 h) (Gartisertib experiment, replicate R3, titrated drug dose 3 nM): 3.98
- Raw data (confluence at 72 h/confluence at 0 h) (Gartisertib experiment, replicate R3, titrated drug dose 10 nM): 3.74
- Raw data (confluence at 72 h/confluence at 0 h) (Gartisertib experiment, replicate R3, titrated drug dose 30 nM): 3.24
- Raw data (confluence at 72 h/confluence at 0 h) (Gartisertib experiment, replicate R3, titrated drug dose 100 nM): 2.56
- Raw data (confluence at 72 h/confluence at 0 h) (Gartisertib experiment, replicate R3, titrated drug dose 300 nM): 2.02
- EC50 (ASPC1, 72 h, AsPC1, Experiment GEM (Gemcitabine alone) in the Berzosertib series, single replicates R1-R3): 34.6 nM
- EC50 (ASPC1, 72 h, AsPC1, Experiment GEM (Gemcitabine alone) in the Ceralasertib series, single replicates R1-R3): 42.6 nM
- EC50 (ASPC1, 72 h, AsPC1, Experiment GEM (Gemcitabine alone) in the Elimusertib series, single replicates R1-R3): 42.4 nM
- EC50 (ASPC1, 72 h, AsPC1, Experiment GEM (Gemcitabine alone) in the Gartisertib series, single replicates R1-R3): 34.1 nM
- EC50 (ASPC1, 72 h, read-out: EC50 (cell growth), GEM alone, mean of four experiments): 45 nM
- EC50 (ASPC1, 72 h, read-out: EC50 mean [nM], AsPC1, Experiment GEM alone in the Berzosertib series, mean of replicates): 40.5 nM
- EC50 (ASPC1, 72 h, read-out: EC50 mean [nM], AsPC1, Experiment GEM alone in the Ceralasertib series, mean of replicates): 45.5 nM
- EC50 (ASPC1, 72 h, read-out: EC50 mean [nM], AsPC1, Experiment GEM alone in the Elimusertib series, mean of replicates): 44.4 nM
- EC50 (ASPC1, 72 h, read-out: EC50 mean [nM], AsPC1, Experiment GEM alone in the Gartisertib series, mean of replicates): 46 nM
- EC50 (ASPC1, 72 h, read-out: pEC50, AsPC1 (converted), Experiment GEM (Gemcitabine alone) in the Berzosertib series, single replicates R1-R3): 34.7 nM
- EC50 (ASPC1, 72 h, read-out: pEC50, AsPC1 (converted), Experiment GEM (Gemcitabine alone) in the Ceralasertib series, single replicates R1-R3): 42.7 nM
- EC50 (ASPC1, 72 h, read-out: pEC50, AsPC1 (converted), Experiment GEM (Gemcitabine alone) in the Elimusertib series, single replicates R1-R3): 42.7 nM
- EC50 (ASPC1, 72 h, read-out: pEC50, AsPC1 (converted), Experiment GEM (Gemcitabine alone) in the Gartisertib series, single replicates R1-R3): 33.9 nM
- EC50 (ASPC1, read-out: EC50 mean [nM], AsPC1, Experiment GEM alone in the Berzosertib series, mean of replicates): 40.5 nM
- EC50 (ASPC1, read-out: EC50 mean [nM], AsPC1, Experiment GEM alone in the Ceralasertib series, mean of replicates): 45.5 nM
- EC50 (ASPC1, read-out: EC50 mean [nM], AsPC1, Experiment GEM alone in the Elimusertib series, mean of replicates): 44.4 nM
- EC50 (ASPC1, read-out: EC50 mean [nM], AsPC1, Experiment GEM alone in the Gartisertib series, mean of replicates): 46 nM
- EC50 (ASPC1, read-out: EC50 mean, GEM alone, Berzosertib experiment): 40.5 nM
- EC50 (ASPC1, read-out: EC50 mean, GEM alone, Ceralasertib experiment): 45.5 nM
- EC50 (ASPC1, read-out: EC50 mean, GEM alone, Elimusertib experiment): 44.4 nM
- EC50 (ASPC1, read-out: EC50 mean, GEM alone, Gartisertib experiment): 46 nM
- Raw data (confluence at 72 h/confluence at 0 h) (titrated drug dose 10 nM, replicate R3, experiment (ATRi) Ceralasertib, AsPC-1, 72 h): 3.37
- Raw data (confluence at 72 h/confluence at 0 h) (titrated drug dose 30 nM, replicate R3, experiment (ATRi) Ceralasertib, AsPC-1, 72 h): 2.93
- Raw data (confluence at 72 h/confluence at 0 h) (titrated drug dose 1000 nM, replicate R3, experiment (ATRi) Ceralasertib, AsPC-1, 72 h): 1.56
